From PubChem BioAssay AID1277 (The Scripps Research Institute Molecular Screening Center, 2008)
The source made the active and inactive calls. The rule behind the calls is not given here.

Biological target: Neuropeptide Y receptor type 1 (Homo sapiens) (UniProt P25929)
Assay: NPY-Y1 receptor antagonist potency, dose response, cell-based (AID 1277)
Settings: NPY-Y1 expressing cells, antagonist mode

Chain of Neuropeptide Y receptor type 1 (Homo sapiens) (P25929 whole entry, looked up): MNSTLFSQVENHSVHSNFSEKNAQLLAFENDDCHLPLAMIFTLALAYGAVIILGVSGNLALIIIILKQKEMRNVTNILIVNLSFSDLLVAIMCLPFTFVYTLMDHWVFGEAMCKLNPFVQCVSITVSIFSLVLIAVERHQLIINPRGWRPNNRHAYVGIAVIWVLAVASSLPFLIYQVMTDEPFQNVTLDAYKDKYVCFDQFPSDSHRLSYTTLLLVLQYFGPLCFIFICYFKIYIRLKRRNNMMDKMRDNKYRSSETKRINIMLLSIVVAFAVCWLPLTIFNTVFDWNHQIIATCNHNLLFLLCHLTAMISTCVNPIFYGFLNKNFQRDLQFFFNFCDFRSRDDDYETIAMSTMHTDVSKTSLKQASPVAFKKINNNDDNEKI

Row | SMILES | IC50
1 | Cc1cc(C(=O)CSc2nc3ccccc3c(=O)n2C)c(C)n1CC1CCCO1 (centres undefined) | < 35 µM (inactive)
2 | CC(C)CC(c1nnnn1C1CCCC1)N1CCN(c2ccccc2F)CC1 (centres undefined) | < 35 µM (inactive)
3 | COc1cccc(Oc2cn[nH]c2-c2ccc(O)cc2O)c1 | < 35 µM (inactive)
4 | Cn1ccnc1C1CCCCN1Cc1nc(-c2ccc3c(c2)OCO3)no1 (centres undefined) | < 35 µM (inactive)
